# pIC50: −log10 of the molar value. Where a SMILES comes first, the peptide text is derived from it. The star is where a group is joined. Phenanthrenequinone2carbonyl = O=C1C(=O)c2cc(C(=O)*)ccc2-c2ccccc21; 3Phenanthroyl(9,10-dioxo) = O=C1C(=O)c2ccc(C(=O)*)cc2-c2ccccc21; X1 = O=C1C(=O)c2cc(N*)ccc2-c2ccccc21
# What was measured:
# [1] = biological target: T1, Receptor-type tyrosine-protein phosphatase C (Homo sapiens, UniProt P08575); assay: In vitro inhibitory activity against the cytosolic portion of CD45 protein-tyrosine phosphatase using pNPP as the substrate
# T1 sequence (P08575 whole entry): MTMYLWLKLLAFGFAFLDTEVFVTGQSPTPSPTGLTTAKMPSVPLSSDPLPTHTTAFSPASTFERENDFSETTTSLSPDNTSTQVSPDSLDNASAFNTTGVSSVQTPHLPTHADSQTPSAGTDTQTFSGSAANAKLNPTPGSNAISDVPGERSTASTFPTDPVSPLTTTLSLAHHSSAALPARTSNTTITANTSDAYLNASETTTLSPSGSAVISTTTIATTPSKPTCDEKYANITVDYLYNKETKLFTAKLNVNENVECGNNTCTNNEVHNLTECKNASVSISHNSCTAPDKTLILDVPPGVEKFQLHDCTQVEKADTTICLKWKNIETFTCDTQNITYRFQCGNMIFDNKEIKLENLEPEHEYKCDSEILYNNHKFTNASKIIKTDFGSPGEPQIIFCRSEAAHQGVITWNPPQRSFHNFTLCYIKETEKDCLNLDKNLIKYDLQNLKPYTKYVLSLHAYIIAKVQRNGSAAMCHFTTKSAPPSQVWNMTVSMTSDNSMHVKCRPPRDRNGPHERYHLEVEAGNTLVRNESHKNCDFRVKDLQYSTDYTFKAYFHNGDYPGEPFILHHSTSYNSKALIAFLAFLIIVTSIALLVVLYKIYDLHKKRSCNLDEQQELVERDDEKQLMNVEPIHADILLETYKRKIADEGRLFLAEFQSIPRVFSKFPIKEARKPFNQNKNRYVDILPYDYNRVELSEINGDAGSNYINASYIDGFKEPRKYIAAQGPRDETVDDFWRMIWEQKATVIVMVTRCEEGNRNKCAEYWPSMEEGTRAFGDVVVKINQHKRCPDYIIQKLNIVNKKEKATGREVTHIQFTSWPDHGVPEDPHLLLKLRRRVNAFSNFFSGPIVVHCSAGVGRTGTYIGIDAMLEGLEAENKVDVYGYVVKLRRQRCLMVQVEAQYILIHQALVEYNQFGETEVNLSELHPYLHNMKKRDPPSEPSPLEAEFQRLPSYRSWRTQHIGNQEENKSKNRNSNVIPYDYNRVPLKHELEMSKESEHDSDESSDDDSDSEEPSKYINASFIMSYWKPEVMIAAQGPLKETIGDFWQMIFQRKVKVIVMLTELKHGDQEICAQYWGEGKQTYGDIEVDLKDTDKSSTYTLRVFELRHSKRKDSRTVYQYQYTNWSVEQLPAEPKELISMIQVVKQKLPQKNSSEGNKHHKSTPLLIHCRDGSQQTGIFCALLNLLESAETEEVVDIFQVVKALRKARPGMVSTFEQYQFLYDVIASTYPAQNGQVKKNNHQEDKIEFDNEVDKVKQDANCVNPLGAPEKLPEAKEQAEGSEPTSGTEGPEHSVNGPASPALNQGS
# [2] = system: T-cell; assay: In vitro inhibition of human T-cell proliferation; assay type: functional, cell-based
# [3] = system: T-cell; assay: Cytotoxicity measured against human T-cells; assay type: functional
# [4] = biological target: T1, Receptor-type tyrosine-protein phosphatase C; assay: Inhibitory concentration against CD45 protein-tyrosine phosphatase using lck-10 mer as substrate
# [5] = biological target: T2, Tyrosine-protein phosphatase non-receptor type 1 (Homo sapiens, UniProt P18031); assay: Inhibitory concentration against PTP1B using lck as substrate
# T2 sequence (P18031 whole entry): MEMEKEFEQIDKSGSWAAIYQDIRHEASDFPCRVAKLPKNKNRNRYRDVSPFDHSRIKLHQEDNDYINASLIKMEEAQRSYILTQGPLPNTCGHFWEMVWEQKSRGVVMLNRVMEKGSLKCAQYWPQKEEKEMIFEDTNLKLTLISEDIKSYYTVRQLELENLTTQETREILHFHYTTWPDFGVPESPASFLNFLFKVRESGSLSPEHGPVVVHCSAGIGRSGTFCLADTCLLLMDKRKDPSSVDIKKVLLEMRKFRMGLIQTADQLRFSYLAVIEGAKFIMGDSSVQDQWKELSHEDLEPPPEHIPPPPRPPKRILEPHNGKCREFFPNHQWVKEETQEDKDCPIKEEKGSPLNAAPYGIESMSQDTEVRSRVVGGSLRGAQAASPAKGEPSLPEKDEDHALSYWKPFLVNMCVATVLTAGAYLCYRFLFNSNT
SMILES,pIC50 [1],pIC50 [2],CC50 [3] [µM],pIC50 [4],pIC50 [5]
O=C1C=C(NCCCN2CCCCC2)c2ccccc2C1=O,< 4.52,,,,
O=C1C(=O)c2cc(NC(=O)c3c(Cl)cc(Cl)cc3Cl)ccc2-c2ccccc21,5.27,5.89,12,,
COC(=O)CCCCCCC(=O)Nc1ccc2c(c1)-c1ccccc1C(=O)C2=O,6.15,5.89,28,,
O=C1C(=O)c2cc(-c3cc4ccccc4o3)ccc2-c2ccccc21,,,3.6,< 4.52,4.72
O=C1C=C(Nc2ccccc2)c2ccccc2C1=O,< 4.52,,,,
O=C(O)CC/N=C1\C=C(O)C(=O)c2ccccc21,< 4.52,,,,
O=C1C(=O)c2cccc([N+](=O)[O-])c2-c2ccc([N+](=O)[O-])cc21,< 4.52,< 4.52,> 30,,
O=C1C(=O)c2cc(-c3ccccc3F)ccc2-c2ccccc21,6.10,,8.4,< 4.52,4.74
O=C1C(=O)c2ccoc2-c2ccccc21,,,3.5,,< 4.52
CC(C)(C)OC(=O)CNC(=O)c1ccc2c(c1)C(=O)C(=O)c1ccccc1-2,,6.40,10,,< 4.52
CCCC(=O)Nc1ccc2c(c1)-c1ccccc1C(=O)C2=O,6.10,6.10,9.1,5.28,< 4.52
COc1ccccc1-c1ccc2c(c1)C(=O)C(=O)c1ccccc1-2,,,9.5,< 4.52,4.80
CC(=O)NC(CCC(N)=O)C(=O)N[C@@H](CC(=O)Nc1ccc2c(c1)C(=O)C(=O)c1ccccc1-2)C(=O)O (some centres not stated),5.96,< 4.52,,,
O=C1C(=O)c2cc(Br)ccc2-c2ccccc21,6.40,6.22,5,,
O=C(COCc1ccccc1)Nc1ccc2c(c1)C(=O)C(=O)c1ccccc1-2,,6.00,14,,4.74
CC(C)(C)OC(=O)CNC(=O)c1ccc2c(c1)-c1ccccc1C(=O)C2=O,6.22,6.49,3.2,,

SMILES,pIC50 [1],pIC50 [2],CC50 [3] [µM],pIC50 [4],pIC50 [5]
CC(=O)N[C@@H](CCC(=O)O)C(=O)NCC(=O)N[C@@H](CCC(N)=O)C(=O)N[C@@H](CC(=O)Nc1ccc2c(c1)C(=O)C(=O)c1ccccc1-2)C(=O)O (Ac-EGQD(X1)-OH),5.82,< 4.52,,,
N=C(N)NCCC[C@H](NC(=O)c1ccc2c(c1)C(=O)C(=O)c1ccccc1-2)C(=O)N[C@@H](CCC(=O)O)C(=O)N1CCC[C@H]1C(=O)N[C@@H](CCCNC(=N)N)C(=O)N[C@@H](CCC(=O)O)C(=O)O (Phenanthrenequinone2carbonyl-REPRE-OH),6.05,4.70,> 30,,
N=C(N)NCCC[C@H](NC(=O)c1ccc2c(c1)C(=O)C(=O)c1ccccc1-2)C(=O)N[C@@H](CCCNC(=N)N)C(=O)N1CCC[C@H]1C(=O)N[C@@H](CCCNC(=N)N)C(=O)NCC(=O)O (Phenanthrenequinone2carbonyl-RRPRG-OH),,4.68,> 30,,
"NC(=O)CC[C@H](NC(=O)[C@H](CCC(=O)O)NC(=O)c1ccc2c(c1)-c1ccccc1C(=O)C2=O)C(=O)NCC(=O)N[C@@H](CCC(N)=O)C(=O)N1CCC[C@H]1C(=O)O ({3Phenanthroyl(9,10-dioxo)}-EQGQP-OH)",,5.15,> 30,,
"NC(=O)CC[C@H](NC(=O)[C@@H]1CCCN1C(=O)[C@H](CCC(N)=O)NC(=O)[C@H](CCC(=O)O)NC(=O)c1ccc2c(c1)-c1ccccc1C(=O)C2=O)C(=O)N1CCC[C@H]1C(=O)O ({3Phenanthroyl(9,10-dioxo)}-EQPQP-OH)",,< 4.52,> 30,,
"NC(=O)CC[C@H](NC(=O)CNC(=O)[C@H](CCC(=O)O)NC(=O)CNC(=O)c1ccc2c(c1)-c1ccccc1C(=O)C2=O)C(=O)N1CCC[C@H]1C(=O)O ({3Phenanthroyl(9,10-dioxo)}-GEGQP-OH)",,4.98,> 30,,
"NC(=O)CC[C@H](NC(=O)[C@@H]1CCCN1C(=O)[C@H](CCC(=O)O)NC(=O)CNC(=O)c1ccc2c(c1)-c1ccccc1C(=O)C2=O)C(=O)N1CCC[C@H]1C(=O)O ({3Phenanthroyl(9,10-dioxo)}-GEPQP-OH)",,< 4.52,> 30,,
"NC(=O)CC[C@H](NC(=O)CNC(=O)c1ccc2c(c1)-c1ccccc1C(=O)C2=O)C(=O)NCC(=O)N[C@@H](CCC(=O)O)C(=O)N1CCC[C@H]1C(=O)O ({3Phenanthroyl(9,10-dioxo)}-GQGEP-OH)",,< 4.52,> 30,,
"NC(=O)CC[C@H](NC(=O)CNC(=O)c1ccc2c(c1)-c1ccccc1C(=O)C2=O)C(=O)NCC(=O)N[C@@H](CCC(N)=O)C(=O)N1CCC[C@H]1C(=O)O ({3Phenanthroyl(9,10-dioxo)}-GQGQP-OH)",,4.70,> 30,,
"NC(=O)CC[C@H](NC(=O)[C@@H]1CCCN1C(=O)[C@H](CCC(N)=O)NC(=O)CNC(=O)c1ccc2c(c1)-c1ccccc1C(=O)C2=O)C(=O)N1CCC[C@H]1C(=O)O ({3Phenanthroyl(9,10-dioxo)}-GQPQP-OH)",,< 4.52,> 30,,
"NC(=O)CC[C@H](NC(=O)c1ccc2c(c1)-c1ccccc1C(=O)C2=O)C(=O)N[C@@H](CCC(=O)O)C(=O)NCC(=O)N[C@@H](CCC(N)=O)C(=O)N1CCC[C@H]1C(=O)O ({3Phenanthroyl(9,10-dioxo)}-QEGQP-OH)",,4.80,> 30,,
"NC(=O)CC[C@H](NC(=O)c1ccc2c(c1)-c1ccccc1C(=O)C2=O)C(=O)N[C@@H](CCC(=O)O)C(=O)N1CCC[C@H]1C(=O)N[C@@H](CCC(N)=O)C(=O)N1CCC[C@H]1C(=O)O ({3Phenanthroyl(9,10-dioxo)}-QEPQP-OH)",,5.30,> 30,,
"NC(=O)CC[C@H](NC(=O)c1ccc2c(c1)-c1ccccc1C(=O)C2=O)C(=O)N[C@@H](CCC(N)=O)C(=O)NCC(=O)N[C@@H](CCC(N)=O)C(=O)N1CCC[C@H]1C(=O)O ({3Phenanthroyl(9,10-dioxo)}-QQGQP-OH)",,4.84,> 30,,
"NC(=O)CC[C@H](NC(=O)c1ccc2c(c1)-c1ccccc1C(=O)C2=O)C(=O)N[C@@H](CCC(N)=O)C(=O)N1CCC[C@H]1C(=O)N[C@@H](CCC(N)=O)C(=O)N1CCC[C@H]1C(=O)O ({3Phenanthroyl(9,10-dioxo)}-QQPQP-OH)",,< 4.52,> 30,,
"O=C1C=Cc2ccccc2C1=O [1,2-NAPHTHOQUINONE]",,5.15,> 30,,
"O=C1C(=O)c2ccccc2-c2ccccc21 [9,10-PHENANTHRENEQUINONE]",,6.52,1.3,,< 4.52

# Reference: ChEMBL document CHEMBL1134488, “Potent reversible inhibitors of the protein tyrosine phosphatase CD45” (J Med Chem, 2001)
